Tests used:
[1] = biological target: T1, JAK3 enzyme (Homo sapiens, UniProt P52333); test: JAK Caliper Enzyme Assay at 4 μM ATP; type: biochemical
T1 sequence (P52333 1-1124): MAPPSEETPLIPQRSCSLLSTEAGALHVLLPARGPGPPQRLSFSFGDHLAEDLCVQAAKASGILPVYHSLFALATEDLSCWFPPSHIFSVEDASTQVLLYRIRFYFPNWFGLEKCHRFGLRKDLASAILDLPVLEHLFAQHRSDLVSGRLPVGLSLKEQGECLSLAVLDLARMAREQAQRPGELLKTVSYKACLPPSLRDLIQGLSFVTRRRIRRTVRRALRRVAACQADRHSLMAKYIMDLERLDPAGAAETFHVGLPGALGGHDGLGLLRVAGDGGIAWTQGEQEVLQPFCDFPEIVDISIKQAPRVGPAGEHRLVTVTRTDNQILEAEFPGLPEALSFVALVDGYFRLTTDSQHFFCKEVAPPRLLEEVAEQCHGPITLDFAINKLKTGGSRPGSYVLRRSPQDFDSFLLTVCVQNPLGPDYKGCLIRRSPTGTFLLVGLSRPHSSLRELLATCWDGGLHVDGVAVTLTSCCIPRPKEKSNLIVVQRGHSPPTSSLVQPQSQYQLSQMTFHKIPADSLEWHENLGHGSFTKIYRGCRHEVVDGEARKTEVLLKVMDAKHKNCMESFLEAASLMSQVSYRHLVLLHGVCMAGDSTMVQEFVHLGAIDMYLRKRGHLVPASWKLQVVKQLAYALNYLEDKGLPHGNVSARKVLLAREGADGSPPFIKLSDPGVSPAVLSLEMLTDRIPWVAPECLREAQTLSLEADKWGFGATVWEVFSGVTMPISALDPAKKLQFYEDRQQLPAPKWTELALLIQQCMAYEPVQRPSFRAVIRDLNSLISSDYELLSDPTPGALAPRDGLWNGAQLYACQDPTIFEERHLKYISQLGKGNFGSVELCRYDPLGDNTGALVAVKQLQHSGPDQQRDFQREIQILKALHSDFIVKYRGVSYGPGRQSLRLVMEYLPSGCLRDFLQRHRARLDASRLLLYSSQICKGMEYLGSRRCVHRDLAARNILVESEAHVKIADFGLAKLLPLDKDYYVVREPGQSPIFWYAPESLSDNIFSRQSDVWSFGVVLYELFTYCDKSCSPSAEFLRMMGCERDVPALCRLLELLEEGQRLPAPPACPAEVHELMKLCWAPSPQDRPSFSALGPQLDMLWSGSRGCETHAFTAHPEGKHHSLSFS
Method in brief: (§1)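 11-pt ½-log cpd titration in DMSO (top 600 μM, pre-assay); enzyme conc/incubation adjusted per prep → 20-30% peptide phosphorylation; phospho vs non-phospho peptide read by chip-based electrophoretic separation.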

[2] = biological target: T1, JAK3 enzyme; test: JAK Caliper Enzyme Assay at 1 mM ATP; type: biochemical
Method in brief: as §1

[3] = system: IL-15 induced STAT5 phosphorylation in human whole blood lymphocytes; test: HWB IL-15 Induced STAT5 Phosphorylation Assay; type: cell-based; conditions: Lymphocyte, IL-15 final 50 ng/ml, read-out: HWB_IL15 pSTAT5 IC50
Experimental: HWB IL-15 Induced STAT5 Phosphorylation Assay
After serial dilution of the test compounds 1:2 in DMSO at desired concentration (500× of final), the compounds were further diluted in PBS (by adding 4 μL compound/DMSO in 96 μL PBS, [DMSO]=4%, 20× final). To 96-well polypropylene plates were added 90 μl HWB (heparin treated Human Whole Blood)/well, followed by 5 μl/well 4% DMSO in D-PBS or various concentrations of 20× inhibitor in 4% DMSO in D-PBS (w/o Ca^+2 or Mg^+2) to give 1× in 0.2% DMSO. After mixing and incubating for 45 minutes at 37° C., 5 μl D-PBS (unstimulated control) or 20× stocks of 5 μl human IL-15 (final concentration is 50 ng/ml) were added, and mixed three times. After incubating 15 minutes at 37° C., 1× Lyse/Fix Buffer (BD Phosflow 5× Lyse/Fix Buffer) was added to all wells at 1000 μl/well, then incubated for 20 minutes at 37° C. and spun 5 mins at 1200 rpm. After washing in 1000 μl FACS buffer 1× and spinning for 5 mins at 1200 rpm, 400 μl ice cold Perm Buffer III were added to each well. After mixing gently (1-2×) and incubating on ice for 30 minutes, spinning for 5 mins at 1200 rpm without interruption, and washing 1× in cold […] FACS buffer (D-PBS containing 0.1% BSA and 0.1% sodium azide) 250 μl/well of the desired AlexaFluor647-conjugated anti-phospho STATS antibody at 1:125 dilution in FACS buffer was added. Following incubating at 4° C. over night, all the samples were transferred to 96-well polypropylene U-bottom plate, and checked by flow cytometry gated on total lymphocytes.

[4] = system: IL-15 induced P-STAT5 in human PBMC; test: PBMC IL-15 Induced P-STAT5; type: cell-based; conditions: human PBMC, IL-15 final 41 ng/mL; read-out: PBMC IL15_pSTAT5_IC50
Method in brief: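 Thawed human PBMC, rested in human plasma, were preincubated 15 min at 37 °C with compound (0.2% DMSO), then stimulated 15 min with IL-15 at 41 ng/mL final. After paraformaldehyde fixation and methanol permeabilisation, Alexa Fluor 647 anti-STAT5 staining overnight at 4 °C was analysed by flow cytometry on total lymphocytes.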

SMILES	IC50 [1] [nM]	IC50 [2] [nM]	IC50 [3] [nM]	IC50 [4] [nM]
C=CC(=O)N1CCC(Oc2cnc3[nH]cc(C(=O)NCCOC)c3n2)CC1 [Example 211, 2-[(1-acryloylpiperidin-4-yl)oxy]-N-(2-methoxyethyl)-5H-pyrrolo[2,3-b]pyrazine-7-carboxamide]	0.5	74	1740	395
C=CC(=O)N1CCC(Nc2cnc3[nH]cc(C(=O)NCC(F)(F)C(F)(F)F)c3n2)CC1 [Example 179, 2-[(1-acryloylpiperidin-4-yl)amino]-N-(2,2,3,3,3-pentafluoropropyl)-5H-pyrrolo[2,3-b]pyrazine-7-carboxamide]	0.596	18	850	94.8
C=CC(=O)N1CCC(Nc2cnc3[nH]cc(C(=O)NCc4ccc(OC)c(F)c4)c3n2)CC1 [Example 190, 2-[(1-acryloylpiperidin-4-yl)amino]-N-(3-fluoro-4-methoxybenzyl)-5H-pyrrolo[2,3-b]pyrazine-7-carboxamide]	0.193	7	619	96.9
C=CC(=O)N1CCC(Nc2cnc3[nH]cc(C(=O)NCc4ccc(OC)cc4)c3n2)CC1 [Example 191, 2-[(1-acryloylpiperidin-4-yl)amino]-N-(4-methoxybenzyl)-5H-pyrrolo[2,3-b]pyrazine-7-carboxamide]	0.484	9	778	137
C=CC(=O)N1CC[C@@H](Nc2cnc3[nH]cc(C(=O)NCCCC(F)(F)F)c3n2)[C@@H](OC)C1 [Example 308, 2-{[(3S,4R)-1-acryloyl-3-methoxypiperidin-4-yl]amino}-N-(4,4,4-trifluorobutyl)-5H-pyrrolo[2,3-b]pyrazine-7-carboxamide]	0.531	48	775	306
C=CC(=O)N1CCN(c2cnc3[nH]cc(C(=O)NC[C@H](C)CC(F)(F)F)c3n2)CC1 [Example 336, 2-(4-acryloylpiperazin-1-yl)-N-[(2R)-4,4,4-trifluoro-2-methylbutyl]-5H-pyrrolo[2,3-b]pyrazine-7-carboxamide]	0.24	26	373	107
C=CC(=O)N1CCC(Nc2cnc3[nH]cc(C(=O)NCc4ccc(Cl)cn4)c3n2)CC1 [Example 186, 2-[(1-acryloylpiperidin-4-yl)amino]-N-[(5-chloropyridin-2-yl)methyl]-5H-pyrrolo[2,3-b]pyrazine-7-carboxamide]	0.485	15	870	213

The remaining molecules from weak to strong by IC50 [1], led by results:

IC50 [1] [nM]	IC50 [2] [nM]	IC50 [3] [nM]	SMILES	IC50 [4] [nM]
0.888	82	1390	C=CC(=O)N1CC[C@@H](Nc2cnc3[nH]cc(C(=O)NCC(C)CC(F)(F)F)c3n2)[C@@H](OC)C1 (mixture of isomers) [Example 269, Racemic-2-{[(3S,4R)-1-acryloyl-3-methoxypiperidin-4-yl]amino}-N-(4,4,4-trifluoro-2-methylbutyl)-5H-pyrrolo[2,3-b]pyrazine-7-carboxamide]	220
0.736	46	986	C=CC(=O)N1CC[C@@H](Nc2cnc3[nH]cc(C(=O)NCC4CCCC4)c3n2)[C@@H](OC)C1 [Example 313, 2-{[(3S,4R)-1-acryloyl-3-methoxypiperidin-4-yl]amino}-N-(cyclopentylmethyl)-5H-pyrrolo[2,3-b]pyrazine-7-carboxamide]	243
0.565	134	4240	C=CC(=O)N1CCN(c2cnc3[nH]cc(C(=O)NC4CCCOC4)c3n2)CC1(C)C (racemic) [Example 149, Racemic-2-(4-acryloyl-3,3-dimethylpiperazin-1-yl)-N-(tetrahydro-2H-pyran-3-yl)-5H-pyrrolo[2,3-b]pyrazine-7-carboxamide]	163
0.509	97	1200	C=CC(=O)N1CCN(c2cnc3[nH]cc(C(=O)NC4CC(F)(F)C4)c3n2)CC1 [Example 283, 2-(4-acryloylpiperazin-1-yl)-N-(3,3-difluorocyclobutyl)-5H-pyrrolo[2,3-b]pyrazine-7-carboxamide]	257
0.481	12	944	C=CC(=O)N1CCC(Nc2cnc3[nH]cc(C(=O)NCc4sc(C(F)(F)F)nc4C)c3n2)CC1 [Example 180, 2-[(1-acryloylpiperidin-4-yl)amino]-N-{[4-methyl-2-(trifluoromethyl)-1,3-thiazol-5-yl]methyl}-5H-pyrrolo[2,3-b]pyrazine-7-carboxamide]	204
0.426	8	1320	C=CC(=O)N1CCC(Nc2cnc3[nH]cc(C(=O)NCc4cc(C(C)C)no4)c3n2)CC1 [Example 175, 2-[(1-acryloylpiperidin-4-yl)amino]-N-{[3-(propan-2-yl)-1,2-oxazol-5-yl]methyl}-5H-pyrrolo[2,3-b]pyrazine-7-carboxamide]	77.3
0.379	5	1820	C=CC(=O)N1CCC(Nc2cnc3[nH]cc(C(=O)NCc4ccc(OC(F)F)cc4)c3n2)CC1 [Example 181, 2-[(1-acryloylpiperidin-4-yl)amino]-N-[4-(difluoromethoxy)benzyl]-5H-pyrrolo[2,3-b]pyrazine-7-carboxamide]	159
0.368	13	1730	C=CC(=O)N1CCC(Nc2cnc3[nH]cc(C(=O)NCc4ccc(F)c(OC)c4)c3n2)CC1 [Example 174, 2-[(1-acryloylpiperidin-4-yl)amino]-N-(4-fluoro-3-methoxybenzyl)-5H-pyrrolo[2,3-b]pyrazine-7-carboxamide]	162
0.361	53	1400	C=CC(=O)N1CCC(Oc2cnc3[nH]cc(C(=O)NCCC(F)(F)F)c3n2)CC1 [Example 198, 2-[(1-acryloylpiperidin-4-yl)oxy]-N-(3,3,3-trifluoropropyl)-5H-pyrrolo[2,3-b]pyrazine-7-carboxamide]	250
0.2	22	528	C=CC(=O)N1CCN(c2cnc3[nH]cc(C(=O)NCC4CCCC4)c3n2)CC1 [Example 266, 2-(4-acryloylpiperazin-1-yl)-N-(cyclopentylmethyl)-5H-pyrrolo[2,3-b]pyrazine-7-carboxamide]	64.2

From patent US10703756B2, “Pyrrolo[2,3-D]pyrimidinyl, pyrrolo[2,3-B]pyrazinyl, pyrrolo[2,3-B]pyridinyl acrylamides and epoxides thereof” (Pfizer Inc., priority 2015, dated 2020)
